Consider one compound from US20070082956A1, “The use of 1-amino-alkylcyclohexane compounds in the treatment of pain hypersensitivity” (MERZ PHARMA GmbH & Co. KGaA, priority 2003, published 2007).

This assay concerns intradermal capsaicin injection model (secondary hyperalgesia). In words: Human surrogate model of neuropathic pain (intradermal capsaicin injection), placebo-controlled double-blind crossover study. The class given is in vivo. As for the experimental part: This surrogate model of neuropathic pain is thus a valid method for early clinical testing of substances for the treatment of neuropathic pain. The efficacy of the neramexane, a moderate affinity, uncompetitive NMDA receptor antagonist, was tested in a placebo-controlled double-blind crossover study in the intradermal capsaicin injection model. Capsaicin (40 μg) was injected intradermally in the skin of the ventral forearm 3 hours after administration of a single oral dose of neramexane hydrochloride (40 mg) or placebo. Changes of pain sensitivity adjacent to the capsaicin injection and in a remote control area were tested in parallel by quantitative sensory testing prior to oral neramexane or placebo, 2½ hours after neramexane or placebo (i.e., prior to capsaicin injection) and 1½ hours after capsaicin injection. The capsaicin injection elicited a strong, over 5-10 min rapidly declining burning pain resulting in enhanced pain sensitivity adjacent to the injection including hyperalgesia to pin prick and pain to light touch (“allodynia”).

The structures appear in SMILES notation.

On to `CC1(C)CC(C)(C)CC(C)(N)C1` [neramexane, 1-amino-1,3,3,5,5-pentamethylcyclohexane], for which, for the setting “single oral dose 40 mg”, the “size of the capsaicin-induced axon reflex erythema” value was “remained unaltered”. Further, the “summation of pain to repetitive pin prick stimulation (trains of 10 stimuli at 1 Hz)” value (single oral dose 40 mg) is given as “never changed”. Further, the “reduction of capsaicin-induced burning pain compared to placebo” value runs as follows: (single oral dose 40 mg, 2nd-5th min after capsaicin injection, n.s.) 33%; (single oral dose neramexane hydrochloride 40 mg, 3 hours before capsaicin 40 μg intradermal, first minute after injection, p<0.01) 21%. In addition, the “reduction of pain to stroking light touch stimuli (allodynia)” value (single oral dose 40 mg, across all test times, p=0.07) came to 22% and the “reduction of pain to stroking light touch stimuli (allodynia)” value (single oral dose 40 mg, first 30 min after capsaicin injection, p<0.05) came to 25%. Besides, the “reduction of pain of noxious pin pricks compared to placebo (analgesia)” value (single oral dose 40 mg, control area at any time and test area before capsaicin injection, p<0.001) is 27-31%. Besides, the “antihyperalgesia alone, calculated from the ratio of test and control area” value (single oral dose 40 mg, not significant) is 9%. In addition, the “reduction of pin prick pain compared to placebo (combined analgesia and antihyperalgesia)” value (single oral dose 40 mg, test area after capsaicin injection, p<0.001) was found to be 39%.
